Reference: the CheMixHub viscosity set
“And” between values parts separate entries of the source, which are not always exact repeats. Equal entries are not always repeated.

Experiments:
[1] = xn = mol fraction of the nth substance listed

BrC(Br)Br
viscosity
Settings | 298 K | 298.15 K | 303.15 K | 308.15 K | 313.15 K | 318 K
101 kPa | – | – | 1.843 mPa·s and 1.861 mPa·s | 1.729 mPa·s and 1.746 mPa·s | 1.623 mPa·s and 1.641 mPa·s | –
101.3 kPa | 1.873 mPa·s | 1.912 mPa·s | 1.79 mPa·s | 1.684 mPa·s | – | –
101.33 kPa | – | 1.912 mPa·s and 1.977 mPa·s | 1.79 mPa·s and 1.857 mPa·s | 1.684 mPa·s and 1.733 mPa·s | – | 1.476 mPa·s

CC1CCCC(O)C1 (stereo not drawn)
Settings | viscosity [mPa·s]
293.15 K, 101 kPa | 22.8

CCn1cc[n+](C)c1.O=S(=O)([N-]S(=O)(=O)C(F)(F)F)C(F)(F)F
Settings | viscosity
293.15 K, 100 kPa | 41.6 mPa·s and 39.2 mPa·s
297.55 K, 101 kPa | 36.3 mPa·s
298 K, 100 kPa | 29.67 mPa·s
298.15 K, 100 kPa | 33.9 mPa·s and 32.55 mPa·s
298.15 K, 101 kPa | 30.72 mPa·s and 32.3 mPa·s
298.15 K, 101.3 kPa | 32.42 mPa·s
303 K, 100 kPa | 24.82 mPa·s
303.15 K, 100 kPa | 27.68 mPa·s and 27.4 mPa·s
303.15 K, 101.3 kPa | 28.6 mPa·s
308 K, 100 kPa | 20.99 mPa·s
308.15 K, 101.3 kPa | 23.19 mPa·s
313 K, 100 kPa | 17.97 mPa·s
313.15 K, 100 kPa | 20.16 mPa·s and 19.1 mPa·s and 20.1 mPa·s
313.15 K, 101 kPa | 19.9 mPa·s and 19.26 mPa·s
313.15 K, 101.3 kPa | 19.94 mPa·s
318 K, 100 kPa | 15.57 mPa·s
318.15 K, 101.3 kPa | 17.37 mPa·s
323 K, 100 kPa | 13.28 mPa·s
323.15 K, 100 kPa | 15.34 mPa·s and 14.4 mPa·s and 15.3 mPa·s
323.15 K, 101.3 kPa | 15.34 mPa·s

CC(=O)c1ccc(Cl)cc1
303.15 K
Settings | viscosity [mPa·s]
100 kPa | 2.353
101 kPa | 2.353

CC#N
Settings | viscosity
293.15 K, 101.32 kPa | 0.3579 mPa·s
293.15 K, 101.33 kPa | 0.408 mPa·s and 0.383 mPa·s
297.92 K, 101 kPa | 0.3538 mPa·s
298.15 K, 100 kPa | 0.3479 mPa·s and 0.3462 mPa·s and 0.338 mPa·s
298.15 K, 101.3 kPa | 0.335 mPa·s and 0.346 mPa·s
298.15 K, 101.33 kPa | 0.39 mPa·s and 0.361 mPa·s and 0.345 mPa·s
301.67 K, 101 kPa | 0.3418 mPa·s
303 K, 100 kPa | 0.3485 mPa·s
303.15 K, 100 kPa | 0.3332 mPa·s and 0.3307 mPa·s
303.15 K, 101.3 kPa | 0.326 mPa·s
303.15 K, 101.33 kPa | 0.371 mPa·s and 0.333 mPa·s
303.61 K, 101 kPa | 0.3353 mPa·s
305.61 K, 101 kPa | 0.3294 mPa·s
308 K, 100 kPa | 0.3285 mPa·s
308 K, 101 kPa | 0.3205 mPa·s
308.15 K, 100 kPa | 0.3196 mPa·s and 0.3165 mPa·s
308.15 K, 101.3 kPa | 0.314 mPa·s and 0.306 mPa·s
308.15 K, 101.33 kPa | 0.319 mPa·s
308.76 K, 101 kPa | 0.3201 mPa·s
311.67 K, 101 kPa | 0.3112 mPa·s
313 K, 100 kPa | 0.3102 mPa·s
313.15 K, 100 kPa | 0.3071 mPa·s and 0.298 mPa·s
313.15 K, 101.3 kPa | 0.291 mPa·s
313.15 K, 101.32 kPa | 0.2974 mPa·s
313.15 K, 101.33 kPa | 0.337 mPa·s
318 K, 101 kPa | 0.2908 mPa·s
323.15 K, 100 kPa | 0.2849 mPa·s and 0.2624 mPa·s
323.15 K, 101.32 kPa | 0.2729 mPa·s
323.15 K, 101.33 kPa | 0.309 mPa·s

O=S(=O)([N-]S(=O)(=O)C(F)(F)F)C(F)(F)F.OCCNCCO.[Li+]
101 kPa
Settings | viscosity [mPa·s]
313.15 K | 1775
318.15 K | 1235
323.15 K | 895

BrC(Br)C(Br)Br
101 kPa
Settings | viscosity [mPa·s]
298.08 K | 9.687
308.11 K | 7.313
313.11 K | 6.406

C=Cc1ccccc1
101 kPa
Settings | viscosity
298.15 K | 1.07 mPa·s and 0.695 mPa·s
308.15 K | 0.618 mPa·s
313.15 K | 0.573 mPa·s

CC12CC3CC(C1)CC(C)(C3)C2
100 kPa
Settings | viscosity
293.15 K | 3.779 mPa·s and 3.778 mPa·s
298.15 K | 3.371 mPa·s and 3.365 mPa·s
303.15 K | 3.027 mPa·s and 3.017 mPa·s
308.15 K | 2.747 mPa·s
313.15 K | 2.475 mPa·s
318.15 K | 2.262 mPa·s
323.15 K | 2.05 mPa·s

NCCOCCO
101.33 kPa
Settings | viscosity [mPa·s]
298.15 K | 26.66
313.15 K | 13.43
323.15 K | 9.155

CCCCCCCCO
viscosity
Settings | 293.15 K | 298 K | 298.15 K | 303.15 K | 308 K | 308.15 K | 313 K | 313.15 K | 318.15 K | 323.15 K
100 kPa | 9.045 mPa·s and 9.2 mPa·s and 8.98 mPa·s | 7.614 mPa·s | 7.546 mPa·s and 7.67 mPa·s and 7.56 mPa·s | 6.337 mPa·s and 6.35 mPa·s | – | – | – | 4.564 mPa·s and 4.61 mPa·s and 4.585 mPa·s | – | 3.365 mPa·s and 3.38 mPa·s
101 kPa | 8.309 mPa·s and 9.185 mPa·s | – | 7.33 mPa·s and 7.3 mPa·s | – | 5.228 mPa·s | – | 4.464 mPa·s | 4.199 mPa·s and 4.691 mPa·s and 4.58 mPa·s | – | 3.464 mPa·s and 3.369 mPa·s
101.3 kPa | 9.273 mPa·s and 9.183 mPa·s | – | 7.598 mPa·s and 7.84 mPa·s | 6.102 mPa·s and 6.42 mPa·s | – | 5.403 mPa·s | – | 4.413 mPa·s and 4.661 mPa·s | 4.051 mPa·s and 3.701 mPa·s | 2.84 mPa·s
101.33 kPa | – | – | – | – | – | 5.352 mPa·s | – | – | – | 3.361 mPa·s and 3.361 mPa·s

CCC(C)(C)OC
100 kPa
Settings | viscosity [mPa·s]
293.15 K | 0.439
303.15 K | 0.415
313.15 K | 0.369
323.15 K | 0.335

CC(C)(C)N
viscosity
Settings | 298 K | 298.15 K | 303 K | 303.15 K | 308 K | 308.15 K | 313.15 K
101 kPa | 0.434 mPa·s | 0.4394 mPa·s and 0.439 mPa·s | 0.403 mPa·s | 0.4363 mPa·s and 0.4443 mPa·s | 0.375 mPa·s | 0.4126 mPa·s and 0.4126 mPa·s | –
101.33 kPa | – | 0.4394 mPa·s | – | 0.4088 mPa·s | – | 0.3803 mPa·s | 0.3558 mPa·s

CC(=O)c1ccc(Cl)cc1 + CC#N
[1], 308.15 K, 101 kPa
Settings | viscosity [mPa·s]
x1 = 0.0513 | 0.3576
x1 = 0.092 | 0.4065
x1 = 0.1488 | 0.479
x1 = 0.2128 | 0.5704
x1 = 0.2863 | 0.6742
x1 = 0.3792 | 0.8301
x1 = 0.4876 | 1.039
x1 = 0.6196 | 1.31
x1 = 0.7847 | 1.716
x1 = 0.865 | 1.96
x1 = 0.9536 | 2.224

BrC(Br)Br + CCCCCCO
viscosity [mPa·s], [1], 101.3 kPa
Settings | x1 = 0.097 | x1 = 0.199 | x1 = 0.298 | x1 = 0.403 | x1 = 0.497 | x1 = 0.601 | x1 = 0.701 | x1 = 0.798 | x1 = 0.9
298.15 K | 4.186 | 3.77 | 3.34 | 2.965 | 2.667 | 2.4 | 2.192 | 2.031 | 1.922
303.15 K | 3.573 | 3.237 | 2.907 | 2.611 | 2.37 | 2.156 | 1.988 | 1.866 | 1.784
308.15 K | 3.092 | 2.811 | 2.537 | 2.301 | 2.114 | 1.943 | 1.815 | 1.719 | 1.663

BrC(Br)Br + N#CCc1ccccc1
[1], 298.15 K, 101 kPa
Settings | viscosity [mPa·s]
x1 = 0.1271 | 1.937
x1 = 0.2393 | 2
x1 = 0.3546 | 2.087
x1 = 0.5011 | 2.112
x1 = 0.601 | 2.117
x1 = 0.6932 | 2.08
x1 = 0.7999 | 2.027
x1 = 0.889 | 1.966

BrC(Br)Br + N#Cc1ccccc1
[1], 298.15 K, 101 kPa
Settings | viscosity [mPa·s]
x1 = 0.1782 | 1.372
x1 = 0.3333 | 1.548
x1 = 0.4937 | 1.727
x1 = 0.6066 | 1.861
x1 = 0.7005 | 1.88
x1 = 0.8886 | 1.893

CC(=O)c1ccc(Cl)cc1 + CCOC(=O)OCC
[1], 303.15 K, 101 kPa
Settings | viscosity [mPa·s]
x2 = 0.0511 | 2.657
x2 = 0.1131 | 2.468
x2 = 0.1611 | 2.309
x2 = 0.2221 | 2.126
x2 = 0.2808 | 1.948
x2 = 0.3435 | 1.765
x2 = 0.4256 | 1.557
x2 = 0.5032 | 1.372
x2 = 0.6089 | 1.162
x2 = 0.6807 | 1.045
x2 = 0.7618 | 0.927
x2 = 0.8127 | 0.877
x2 = 0.8641 | 0.825
x2 = 0.9197 | 0.774
x2 = 0.9678 | 0.725

CCC(C)(C)OC + c1ccccc1
viscosity [mPa·s], [1], 100 kPa
Settings | x1 = 0.051 | x1 = 0.1986 | x1 = 0.2998 | x1 = 0.3995 | x1 = 0.4992 | x1 = 0.5905 | x1 = 0.6974 | x1 = 0.8012 | x1 = 0.8948 | x1 = 0.9496
293.15 K | 0.623 | 0.579 | 0.553 | 0.53 | 0.51 | 0.493 | 0.475 | 0.46 | 0.451 | 0.445
303.15 K | 0.547 | 0.513 | 0.493 | 0.475 | 0.461 | 0.449 | 0.436 | 0.427 | 0.422 | 0.418
313.15 K | 0.478 | 0.447 | 0.43 | 0.414 | 0.402 | 0.392 | 0.381 | 0.375 | 0.372 | 0.37

BrC(Br)Br + CO
[1], 318 K, 101.33 kPa
Settings | viscosity [mPa·s]
x1 = 0.163 | 0.6935
x1 = 0.3122 | 0.8844
x1 = 0.4563 | 1.043
x1 = 0.7234 | 1.261
x1 = 0.8987 | 1.383

BrC(Br)Br + ClC(Cl)(Cl)Cl
[1]
Settings | viscosity [mPa·s]
298 K, 101.3 kPa, x1 = 0.1194 | 0.965
298 K, 101.3 kPa, x1 = 0.2186 | 1.037
298 K, 101.3 kPa, x1 = 0.3128 | 1.115
298 K, 101.3 kPa, x1 = 0.4431 | 1.231
298 K, 101.3 kPa, x1 = 0.5248 | 1.308
298 K, 101.3 kPa, x1 = 0.6217 | 1.397
298 K, 101.3 kPa, x1 = 0.7153 | 1.477
298 K, 101.3 kPa, x1 = 0.8068 | 1.609
298 K, 101.3 kPa, x1 = 0.8986 | 1.753
318 K, 101.33 kPa, x1 = 0.1597 | 0.8215
318 K, 101.33 kPa, x1 = 0.3179 | 0.9131
318 K, 101.33 kPa, x1 = 0.5191 | 1.056
318 K, 101.33 kPa, x1 = 0.6651 | 1.164
318 K, 101.33 kPa, x1 = 0.8607 | 1.328
